Experimental data taken from ChEMBL document CHEMBL1201862, “PubChem BioAssay data set” (2004).
Active and inactive are the calls of the source.

Assays:
[1] = target: Mu-type opioid receptor (Homo sapiens, UniProt P35372); assay: SAR Analysis of Agonists of the MOR Receptor using an Image-Based Assay - Set 3. [Related pubchem assays (depositor defined):AID1777, AID1785, AID1786, AID1966, AID2133, AID2136, AID2284, AID2285, AID2352]; format: functional
[2] = target: T1, Kappa-type opioid receptor (Homo sapiens, UniProt P41145); assay: kappa opioid receptor activation by imaging – image-based, set 3, SAR follow-up (AID 488833); format: functional
T1 sequence (P41145 whole entry): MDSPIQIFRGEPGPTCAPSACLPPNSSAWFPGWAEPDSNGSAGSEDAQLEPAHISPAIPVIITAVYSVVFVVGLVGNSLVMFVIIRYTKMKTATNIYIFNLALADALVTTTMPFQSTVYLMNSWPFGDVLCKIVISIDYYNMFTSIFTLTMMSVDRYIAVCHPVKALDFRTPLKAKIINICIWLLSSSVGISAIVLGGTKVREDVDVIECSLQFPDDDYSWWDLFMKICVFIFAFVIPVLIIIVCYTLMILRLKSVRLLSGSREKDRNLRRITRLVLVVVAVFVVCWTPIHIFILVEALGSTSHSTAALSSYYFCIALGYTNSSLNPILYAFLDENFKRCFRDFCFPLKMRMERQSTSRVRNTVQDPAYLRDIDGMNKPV

[3] = target: Delta-type opioid receptor (Homo sapiens, UniProt P41143); assay: SAR Analysis of Agonists of the DOR Receptor using an Image-Based Assay - Set 3. [Related pubchem assays (depositor defined):AID1777, AID1786]; format: functional
Chain of Delta-type opioid receptor (P41143 whole entry): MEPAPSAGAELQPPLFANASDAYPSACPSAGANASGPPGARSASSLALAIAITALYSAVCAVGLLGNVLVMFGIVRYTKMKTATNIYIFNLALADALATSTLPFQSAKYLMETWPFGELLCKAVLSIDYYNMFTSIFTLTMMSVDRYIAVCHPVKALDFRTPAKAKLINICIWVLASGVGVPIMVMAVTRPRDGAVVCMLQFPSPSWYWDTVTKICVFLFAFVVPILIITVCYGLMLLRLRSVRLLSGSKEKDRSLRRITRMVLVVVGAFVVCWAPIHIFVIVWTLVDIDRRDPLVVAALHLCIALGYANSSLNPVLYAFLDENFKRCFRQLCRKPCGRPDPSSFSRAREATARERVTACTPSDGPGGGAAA

[4] = target: T1, Kappa-type opioid receptor; assay: SAR analysis of small molecule agonists of the kappa opioid receptor via a luminescent beta-arrestin assay - Set 3. [Related pubchem assays (depositor defined):AID1777, AID1785, AID1786, AID1966, AID2133, AID2136, AID2284, AID2500]; format: functional
[5] = target: T2, Cannabinoid receptor 2 (Homo sapiens, UniProt P34972); assay: SAR analysis of agonists of the Cannabinoid Receptor 2 using an Image-Based Assay. [Related pubchem assays (depositor defined):AID2013, AID2026]; format: functional
T2 sequence (P34972 whole entry): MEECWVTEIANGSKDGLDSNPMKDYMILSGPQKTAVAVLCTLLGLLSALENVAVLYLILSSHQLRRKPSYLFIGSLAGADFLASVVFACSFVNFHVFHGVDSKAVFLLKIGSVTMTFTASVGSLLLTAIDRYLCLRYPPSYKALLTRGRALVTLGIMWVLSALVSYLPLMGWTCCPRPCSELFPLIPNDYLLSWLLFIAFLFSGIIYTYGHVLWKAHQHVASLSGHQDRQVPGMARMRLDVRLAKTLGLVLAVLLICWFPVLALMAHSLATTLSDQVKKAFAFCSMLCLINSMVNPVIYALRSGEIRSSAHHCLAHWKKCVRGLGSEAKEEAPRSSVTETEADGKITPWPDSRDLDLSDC

[6] = target: T3, G-protein coupled receptor 55 (Homo sapiens, UniProt Q9Y2T6); assay: inhibition of LPI-stimulated GPR55 beta-arrestin translocation – imaging, U2OS, beta-arrestin-GFP, LPI agonist, primary screen (AID 2013); format: functional;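 further: antagonist potency measured as reduced agonist-driven arrestin aggregation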
T3 sequence (Q9Y2T6 whole entry): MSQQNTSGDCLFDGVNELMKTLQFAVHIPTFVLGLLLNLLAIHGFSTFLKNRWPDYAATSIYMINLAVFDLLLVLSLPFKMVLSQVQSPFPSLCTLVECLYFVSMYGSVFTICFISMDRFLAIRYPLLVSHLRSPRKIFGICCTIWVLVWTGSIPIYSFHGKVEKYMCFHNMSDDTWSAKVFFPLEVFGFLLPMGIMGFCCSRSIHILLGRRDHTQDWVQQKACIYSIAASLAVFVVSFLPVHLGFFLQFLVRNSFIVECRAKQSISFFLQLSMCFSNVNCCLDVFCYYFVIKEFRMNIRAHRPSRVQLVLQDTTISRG

[7] = viability of PTEN-deleted HCT116 cells – cell-based, HCT116 PTEN knockout, dose response (AID 1047); format: functional;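 further: HCT116 colon tumor cells with PTEN knocked out; cells exposed to compound for 60 hours before readout; potency for loss of cell viability measured by luminescence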
[8] = target: T4, G-protein coupled receptor 35 (Homo sapiens, UniProt Q9HC97); assay: SAR analysis of Antagonists of the GPR35 Receptor using an Image-Based Assay - Set 3. [Related pubchem assays (depositor defined):AID2013, AID2026]; format: functional
T4 sequence (Q9HC97 whole entry): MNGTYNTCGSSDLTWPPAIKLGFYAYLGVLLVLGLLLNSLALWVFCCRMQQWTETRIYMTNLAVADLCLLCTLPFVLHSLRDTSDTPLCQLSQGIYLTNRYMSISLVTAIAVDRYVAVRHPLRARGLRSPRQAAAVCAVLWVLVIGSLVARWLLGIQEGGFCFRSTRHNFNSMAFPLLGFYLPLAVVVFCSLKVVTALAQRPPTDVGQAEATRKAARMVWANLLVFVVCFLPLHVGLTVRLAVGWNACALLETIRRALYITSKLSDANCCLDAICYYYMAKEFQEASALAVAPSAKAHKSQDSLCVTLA

[9] = target: T3, G-protein coupled receptor 55; assay: blockade of LPI-induced GPR55 arrestin translocation – imaging, U2OS, beta-arrestin-GFP, LPI agonist, set 2, SAR follow-up (AID 2820); format: functional
[10] = Trypanosoma cruzi growth suppression in host cells – NIH3T3 host cells, beta-gal luminescence, confirmation (AID 2044); format: functional, cell-based;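 further: intracellular parasites grown in NIH/3T3 mouse fibroblasts as host cells; luminescent beta-galactosidase reporter signal from transgenic T. cruzi replicating inside host cells; inhibitors lower the luminescence signal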
[11] = viability of HCT116 lacking mutant beta-catenin – cell-based, human colon tumor, dose response (AID 1045); format: functional;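 further: HCT116 colon tumor cells with beta catenin knocked out; cells exposed to compound for 60 hours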
[12] = target: T4, G-protein coupled receptor 35; assay: SAR analysis of Agonists of the GPR35 Receptor using an Image-Based Assay - Set 2. [Related pubchem assays (depositor defined):AID2013, AID2026]; format: functional
[13] = target: T2, Cannabinoid receptor 2; assay: SAR analysis of antagonists of the Cannabinoid Receptor 2 using an Image-Based Assay. [Related pubchem assays (depositor defined):AID2013, AID2026]; format: functional
[14] = target: T5, Cannabinoid receptor 1 (Homo sapiens, UniProt P21554); assay: SAR analysis of agonists of the Cannabinoid Receptor 1 using an Image-Based Assay - Set 2. [Related pubchem assays (depositor defined):AID2013, AID2026]; format: functional
T5 sequence (P21554 whole entry): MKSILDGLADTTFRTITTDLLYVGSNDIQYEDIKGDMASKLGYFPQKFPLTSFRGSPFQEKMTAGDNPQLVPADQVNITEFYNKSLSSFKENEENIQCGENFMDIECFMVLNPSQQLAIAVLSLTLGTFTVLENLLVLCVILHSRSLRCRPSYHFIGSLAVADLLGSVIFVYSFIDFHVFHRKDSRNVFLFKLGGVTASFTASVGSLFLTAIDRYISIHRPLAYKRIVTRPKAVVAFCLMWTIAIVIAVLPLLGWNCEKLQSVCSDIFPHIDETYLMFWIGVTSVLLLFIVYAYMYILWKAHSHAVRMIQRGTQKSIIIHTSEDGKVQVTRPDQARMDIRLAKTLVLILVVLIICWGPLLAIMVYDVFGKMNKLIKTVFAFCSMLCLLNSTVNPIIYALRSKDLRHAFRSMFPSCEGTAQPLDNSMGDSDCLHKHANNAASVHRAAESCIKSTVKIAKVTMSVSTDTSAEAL

[15] = NIH3T3 cell viability loss – ATP luminescence, mouse fibroblasts, counter-screen, dose response (AID 2010); format: functional, cell-based;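 further: cells exposed to compound for about 90 hours before reading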
[16] = target: T5, Cannabinoid receptor 1; assay: SAR analysis of antagonists of the Cannabinoid Receptor 1 using an Image-Based Assay - Set 2. [Related pubchem assays (depositor defined):AID2013, AID2026]; format: functional
[17] = system: HEK293; assay: cells; details: Homo sapiens;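 further: cells exposed to compound for 14 hours overnight before viability readout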
[18] = target: Tumor necrosis factor (Homo sapiens, UniProt P01375); assay: analog potency on TNFa NF-kB signaling – cell-based, revised, SAR follow-up (AID 2337); format: functional
Chain of Tumor necrosis factor (P01375 whole entry, the tested form may be a part): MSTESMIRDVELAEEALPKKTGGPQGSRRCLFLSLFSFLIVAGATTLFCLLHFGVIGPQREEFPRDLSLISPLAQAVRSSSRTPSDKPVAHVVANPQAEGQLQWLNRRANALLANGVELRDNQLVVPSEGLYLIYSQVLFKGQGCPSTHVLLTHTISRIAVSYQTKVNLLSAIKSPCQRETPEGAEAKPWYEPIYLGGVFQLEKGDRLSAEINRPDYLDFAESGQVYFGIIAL

[19] = target: Nucleotide-binding oligomerization domain-containing protein 1 (Homo sapiens, UniProt Q9Y239); assay: blockers of NOD1 pathway activity – revised, SAR follow-up (AID 2333); format: functional
Chain of Nucleotide-binding oligomerization domain-containing protein 1 (Q9Y239 whole entry, the tested form may be a part): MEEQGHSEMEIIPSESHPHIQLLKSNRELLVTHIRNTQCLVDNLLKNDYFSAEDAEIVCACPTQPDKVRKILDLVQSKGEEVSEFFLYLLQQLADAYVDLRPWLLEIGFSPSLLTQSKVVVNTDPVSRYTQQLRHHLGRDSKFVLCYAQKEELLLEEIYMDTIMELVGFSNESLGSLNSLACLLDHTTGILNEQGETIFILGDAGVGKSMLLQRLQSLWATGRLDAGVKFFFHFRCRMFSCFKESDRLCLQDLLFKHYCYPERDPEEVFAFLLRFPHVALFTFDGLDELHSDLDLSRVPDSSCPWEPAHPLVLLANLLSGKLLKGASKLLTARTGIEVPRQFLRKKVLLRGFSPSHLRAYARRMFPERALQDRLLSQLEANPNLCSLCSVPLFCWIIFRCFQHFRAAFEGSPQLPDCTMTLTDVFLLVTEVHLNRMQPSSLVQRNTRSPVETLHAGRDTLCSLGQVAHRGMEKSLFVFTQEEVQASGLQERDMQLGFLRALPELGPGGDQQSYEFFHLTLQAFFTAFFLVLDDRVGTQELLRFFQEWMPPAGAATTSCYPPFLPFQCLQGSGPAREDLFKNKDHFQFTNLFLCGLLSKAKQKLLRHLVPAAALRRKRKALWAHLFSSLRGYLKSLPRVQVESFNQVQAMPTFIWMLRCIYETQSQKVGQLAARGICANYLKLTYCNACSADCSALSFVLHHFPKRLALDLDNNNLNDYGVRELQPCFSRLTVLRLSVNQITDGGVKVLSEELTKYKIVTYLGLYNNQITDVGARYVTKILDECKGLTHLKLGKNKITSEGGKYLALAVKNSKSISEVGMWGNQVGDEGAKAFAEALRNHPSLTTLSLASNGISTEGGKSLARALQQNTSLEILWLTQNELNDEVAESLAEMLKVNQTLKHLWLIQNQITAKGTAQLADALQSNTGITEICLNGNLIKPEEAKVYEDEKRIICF

Chain of Mu-type opioid receptor (P35372 whole entry): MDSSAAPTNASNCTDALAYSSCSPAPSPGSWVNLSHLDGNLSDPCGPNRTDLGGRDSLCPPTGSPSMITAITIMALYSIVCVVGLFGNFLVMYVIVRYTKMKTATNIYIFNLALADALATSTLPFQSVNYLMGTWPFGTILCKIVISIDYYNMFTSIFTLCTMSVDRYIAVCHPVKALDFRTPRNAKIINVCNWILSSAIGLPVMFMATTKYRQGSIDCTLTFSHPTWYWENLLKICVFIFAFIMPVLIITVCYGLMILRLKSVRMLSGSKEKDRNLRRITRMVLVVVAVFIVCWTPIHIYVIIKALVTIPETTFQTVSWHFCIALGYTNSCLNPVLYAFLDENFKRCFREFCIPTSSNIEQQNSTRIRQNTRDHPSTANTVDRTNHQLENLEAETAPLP

With COC(=O)c1ccc(CSc2nnc(-c3ccccn3)n2Cc2ccco2)cc1 the EC50 [1] was > 32 µM (inactive), the EC50 [2] was 18.7 µM (inactive) and the EC50 [3] was > 64 µM (inactive). The EC50 [4] was 6.62 µM (active).
In the case of CCC(C)NS(=O)(=O)c1ccc(NC(=O)C(Sc2ccccc2)c2ccccc2)cc1 (centres undefined), the EC50 [5] was > 32 µM (inactive), the IC50 [6] was 592 nM (active) and the EC50 [7] was 13.6 µM (active). The IC50 [8] was > 32 µM (inactive), the IC50 [9] was 1.94 µM (active) and the EC50 [10] was 2.34 µM (active). For the same compound, the EC50 [11] was 14.5 µM (active), the EC50 [12] was > 32 µM (inactive) and the IC50 [13] was > 32 µM (inactive). For the same compound, the EC50 [14] was > 32 µM (inactive), the EC50 [15] was > 60 µM (not active) and the IC50 [16] was 975 nM (active).
In the case of CC(=O)N1c2ccc(S(=O)(=O)N3CCN(c4ccc(C)cc4)CC3)cc2CC1C (centres undefined), the IC50 [17] was > 20 µM (inactive), the IC50 [18] was 4.32 µM (active) and the IC50 [19] was 5.76 µM (active).
